# Test results taken from patent US9738648B2, “Pyridines, pyrimidines, and pyrazines, as BTK inhibitors and uses thereof” (Merck Patent GmbH, priority 2013, dated 2017).
# Molecular target: T1, full-length human BTK (Homo sapiens, UniProt Q06187)
# T1 construct: 2.5× stocks of full-length human BTK (08-080) from CarnaBio USA, Inc; purchased CarnaBio USA, Inc., Natick, Mass; 08-080
# Assay: BTK IC50 Enzyme Assay (Assay A), microfluidic off-chip mobility shift kinase assay
# Format: biochemical
# Details: kinKDR peptide substrate, 90 min at 27° C.
# Procedure: BTK IC50 Enzyme Assay (Assay A)
# The following describes a microfluidic, off-chip mobility shift kinase assay used to measure inherent potency of compounds against BTK enzyme.
# 2.5× stocks of full-length human BTK (08-080) from CarnaBio USA, Inc., Natick, Mass., 1.6×ATP and appropriate kinKDR peptide substrate (FITC-AHA-EEPLYWSFPAKKK10 NH2) were prepared in kinase reaction buffer consisting of 25 mM MgCl2, 0.015% Brij-35 (30%), 100 mM Hepes, pH 7.5, and 10 mM DTT.
# 5 uL of enzyme buffer and 7.5 uL of ATP/kinKDR peptide substrate mix were added to Matrix (#115304) 384-well, sterile, polypropylene plates (Thermo Fisher Scientific, 15 Hudson, N.H.) with 125 nL of serially diluted compounds prepared in 100% DMSO, and incubated for 90 min. at 27° C. Following the incubation period, reactions were stopped by adding 60 uL stop buffer consisting of 100 mM Hepes, pH 7.5, 0.015% Brij-35 (30%), 0.277% Coating Reagent #3 (Caliper Life Sciences, Mountain View, Calif.), 5% DMSO. Stopped reactions were monitored at −2 PSI, −3000 V/−700 V in a LabChip 3000 plate 20 reader from Caliper Life Sciences, a PerkinElmer Company (Hopkinton, Mass.), and the activity was measured by off-chip mobility shift assay measuring the charge/mass difference between substrate and product resulting from peptide phosphorilation. IC50 and efficacy were determined by plotting log [Inhibitor] vs. % Activity in GeneData Screener (Basel, Switzerland).
# T1 sequence (Q06187 whole entry): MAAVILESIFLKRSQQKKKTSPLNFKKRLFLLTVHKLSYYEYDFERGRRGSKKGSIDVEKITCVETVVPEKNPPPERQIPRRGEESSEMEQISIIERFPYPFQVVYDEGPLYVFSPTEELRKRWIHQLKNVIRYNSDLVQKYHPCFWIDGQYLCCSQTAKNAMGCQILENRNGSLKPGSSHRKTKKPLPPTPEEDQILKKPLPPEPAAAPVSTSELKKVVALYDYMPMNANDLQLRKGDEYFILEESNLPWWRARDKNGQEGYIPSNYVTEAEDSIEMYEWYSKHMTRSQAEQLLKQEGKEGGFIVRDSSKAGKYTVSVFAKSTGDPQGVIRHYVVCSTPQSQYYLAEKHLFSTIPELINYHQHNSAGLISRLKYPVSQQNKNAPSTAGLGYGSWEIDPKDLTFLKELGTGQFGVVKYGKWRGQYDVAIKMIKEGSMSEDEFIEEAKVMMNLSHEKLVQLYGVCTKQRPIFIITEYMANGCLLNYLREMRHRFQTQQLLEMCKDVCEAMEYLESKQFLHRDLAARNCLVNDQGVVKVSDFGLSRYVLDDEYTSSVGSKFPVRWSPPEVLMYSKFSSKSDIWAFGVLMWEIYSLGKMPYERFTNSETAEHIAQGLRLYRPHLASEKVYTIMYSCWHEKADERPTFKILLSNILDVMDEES
row,IC50,Compound
1,< 100 nM,"CN(C)C/C=C/C(=O)N1CCC(n2ccc3ncnc(Oc4ccc(Oc5ccccc5)cc4)c32)CC1 [Compound 1, (E)-4-(dimethylamino)-1-(4-(4-(4-phenoxyphenoxy)-5H-pyrrolo[3,2-d]pyrimidin-5-yl)piperidin-1-yl)but-2-en-1-one]"
2,< 100 nM,"C=CC(=O)N1CCC(n2ccc3ncnc(Oc4ccc(Oc5ccccc5)cc4)c32)CC1 [Compound 2, 1-(4-(4-(4-phenoxyphenoxy)-5H-pyrrolo[3,2-d]pyrimidin-5-yl)piperidin-1-yl)prop-2-en-1-one]"
3,< 100 nM,"C=CC(=O)N1CC(n2ccc3ncc(-c4ccc(Oc5ccccc5)cc4)cc32)C1 [Compound 4, 1-(3-(6-(4-phenoxyphenyl)-1H-pyrrolo[3,2-b]pyridin-1-yl)azetidin-1-yl)prop-2-en-1-one]"
4,< 100 nM,"C=CC(=O)N1CC[C@H](n2ccc3ncnc(Oc4ccc(Oc5ccccc5)cc4)c32)C1 [Compound 5, (S)-1-(3-(4-(4-phenoxyphenoxy)-5H-pyrrolo[3,2-d]pyrimidin-5-yl)pyrrolidin-1-yl)prop-2-en-1-one]"
5,< 100 nM,"C=CC(=O)N1CC(n2ccc3ncnc(Nc4ccc(Oc5ccccc5)cc4)c32)C1 [Compound 6, 1-(3-(4-((4-phenoxyphenyl)amino)-5H-pyrrolo[3,2-d]pyrimidin-5-yl)azetidin-1-yl)prop-2-en-1-one]"
6,< 100 nM,"C=CC(=O)N1CC(n2ccc3ncc(-c4ccc(Oc5ccccc5)cc4)nc32)C1 [Compound 7, 1-(3-(3-(4-phenoxyphenyl)-5H-pyrrolo[2,3-b]pyrazin-5-yl)azetidin-1-yl)prop-2-en-1-one]"
7,< 100 nM,"C=CC(=O)N[C@H]1C[C@H](n2ccc3ncnc(Oc4ccc(Oc5ccccc5)cc4)c32)C1 [Compound 8, N-(trans-3-(4-(4-phenoxyphenoxy)-5H-pyrrolo[3,2-d]pyrimidin-5-yl)cyclobutyl)acrylamide]"
8,< 100 nM,"C=CC(=O)N1CC[C@@H]1Cn1ccc2ncnc(Oc3ccc(Oc4ccccc4)cc3)c21 [Compound 9, (R)-1-(2-((4-(4-phenoxyphenoxy)-5H-pyrrolo[3,2-d]pyrimidin-5-yl)methyl)azetidin-1-yl)prop-2-en-1-one]"
9,< 100 nM,"C=CC(=O)N[C@H]1C[C@@H](n2ncc3ncnc(Oc4ccc(Oc5ccccc5)cc4)c32)C1 [Compound 11, N-((1s,3s)-3-(7-(4-phenoxyphenoxy)-1H-pyrazolo[4,3-d]pyrimidin-1-yl)cyclobutyl)acrylamide]"
10,< 100 nM,"C=CC(=O)N1CCC(n2ncc3ncnc(Oc4ccc(Oc5ccccc5)cc4)c32)CC1 [Compound 12, 1-(4-(7-(4-phenoxyphenoxy)-1H-pyrazolo[4,3-d]pyrimidin-1-yl)piperidin-1-yl)prop-2-en-1-one]"
11,< 100 nM,"CN(C)C/C=C/C(=O)N1CCC(n2ncc3ncnc(Oc4ccc(Oc5ccccc5)cc4)c32)CC1 [Compound 14, (E)-4-(dimethylamino)-1-(4-(7-(4-phenoxyphenoxy)-1H-pyrazolo[4,3-d]pyrimidin-1-yl)piperidin-1-yl)but-2-en-1-one]"
12,< 100 nM,"C=CC(=O)N1CCCC(Cn2ccc3ncnc(Oc4ccc(Oc5ccccc5)cc4)c32)C1 (stereo not shown) [Compound 15, 1-(3-((4-(4-phenoxyphenoxy)-5H-pyrrolo[3,2-d]pyrimidin-5-yl)methyl)piperidin-1-yl)prop-2-en-1-one]"
13,< 100 nM,"C=CC(=O)N1CC(n2ccc3ncnc(Oc4ccc(OCc5ccccc5)cc4)c32)C1 [Compound 16, 1-(3-(4-(4-(benzyloxy)phenoxy)-5H-pyrrolo[3,2-d]pyrimidin-5-yl)azetidin-1-yl)prop-2-en-1-one]"
14,< 100 nM,"C=CC(=O)N1CC(n2ccc3ncnc(Oc4ccc(Cc5ccccc5)cc4)c32)C1 [Compound 17, 1-(3-(4-(4-benzylphenoxy)-5H-pyrrolo[3,2-d]pyrimidin-5-yl)azetidin-1-yl)prop-2-en-1-one]"
15,< 100 nM,"CN(C)C/C=C/C(=O)N1CC[C@H](n2ccc3ncnc(Oc4ccc(Oc5ccccc5)cc4)c32)C1 [Compound 18, (S,E)-4-(dimethylamino)-1-(3-(4-(4-phenoxyphenoxy)-5H-pyrrolo[3,2-d]pyrimidin-5-yl)pyrrolidin-1-yl)but-2-en-1-one]"
16,< 100 nM,"CN(C)C/C=C/C(=O)N1CC(n2ccc3ncnc(Oc4ccc(Oc5ccccc5)cc4)c32)C1 [Compound 19, (E)-4-(dimethylamino)-1-(3-(4-(4-phenoxyphenoxy)-5H-pyrrolo[3,2-d]pyrimidin-5-yl)azetidin-1-yl)but-2-en-1-one]"

row,IC50,Compound
1,< 100 nM,"C=CC(=O)N1CC(Cn2ccc3ncnc(Oc4ccc(Oc5ccccc5)cc4)c32)C1 [Compound 20, 1-(3-((4-(4-phenoxyphenoxy)-5H-pyrrolo[3,2-d]pyrimidin-5-yl)methyl)azetidin-1-yl)prop-2-en-1-one]"
2,< 100 nM,"C=CC(=O)N[C@H]1C[C@H](n2ncc3ncnc(Oc4ccc(Oc5ccccc5)cc4)c32)C1 [Compound 21, N-((1r,3r)-3-(7-(4-phenoxyphenoxy)-1H-pyrazolo[4,3-d]pyrimidin-1-yl)cyclobutyl)acrylamide]"
3,< 100 nM,"C=CC(=O)N1CC(n2ccc3ncnc(Oc4ccc(Nc5ccccc5)cc4)c32)C1 [Compound 22, 1-(3-(4-(4-(phenylamino)phenoxy)-5H-pyrrolo[3,2-d]pyrimidin-5-yl)azetidin-1-yl)prop-2-en-1-one]"
4,< 100 nM,"C=CC(=O)N1CC(n2ncc3ncc(-c4ccc(Oc5ccccc5)cc4)nc32)C1 [Compound 23, 1-(3-(6-(4-phenoxyphenyl)-1H-pyrazolo[3,4-b]pyrazin-1-yl)azetidin-1-yl)prop-2-en-1-one]"
5,< 100 nM,"CN(C)C/C=C/C(=O)N1CC(n2ccc3ncc(-c4ccc(Oc5ccccc5)cc4)nc32)C1 [Compound 24, (E)-4-(dimethylamino)-1-(3-(3-(4-phenoxyphenyl)-5H-pyrrolo[2,3-b]pyrazin-5-yl)azetidin-1-yl)but-2-en-1-one]"
6,< 100 nM,"C=CC(=O)N1CC[C@H]1Cn1ccc2ncnc(Oc3ccc(Oc4ccccc4)cc3)c21 [Compound 25, (S)-1-(2-((4-(4-phenoxyphenoxy)-5H-pyrrolo[3,2-d]pyrimidin-5-yl)methyl)azetidin-1-yl)prop-2-en-1-one]"
7,< 100 nM,"C=CC(=O)NCCCn1ccc2ncnc(Oc3ccc(Oc4ccccc4)cc3)c21 [Compound 26, N-(3-(4-(4-phenoxyphenoxy)-5H-pyrrolo[3,2-d]pyrimidin-5-yl)propyl)acrylamide]"
8,< 100 nM,"C=CC(=O)N1CC(n2ccc3ncnc(Oc4ccc(Oc5ccc(F)cc5)cc4)c32)C1 [Compound 27, 1-(3-(4-(4-(4-fluorophenoxy)phenoxy)-5H-pyrrolo[3,2-d]pyrimidin-5-yl)azetidin-1-yl)prop-2-en-1-one]"
9,< 100 nM,"C=CC(=O)N1CC2(CC(n3ccc4ncnc(Oc5ccc(Oc6ccccc6)cc5)c43)C2)C1 [Compound 28, 1-(6-(4-(4-phenoxyphenoxy)-5H-pyrrolo[3,2-d]pyrimidin-5-yl)-2-azaspiro[3.3]heptan-2-yl)prop-2-en-1-one]"
10,< 100 nM,"C=CC(=O)N1CCC(Cn2ccc3ncnc(Oc4ccc(Oc5ccccc5)cc4)c32)C1 (stereo not shown) [Compound 29, 1-(3-((4-(4-phenoxyphenoxy)-5H-pyrrolo[3,2-d]pyrimidin-5-yl)methyl)pyrrolidin-1-yl)prop-2-en-1-one]"
11,< 100 nM,"CN(C)C/C=C/C(=O)N1CCCC(Cn2ccc3ncnc(Oc4ccc(Oc5ccccc5)cc4)c32)C1 (stereo not shown) [Compound 30, (E)-4-(dimethylamino)-1-(3-((4-(4-phenoxyphenoxy)-5H-pyrrolo[3,2-d]pyrimidin-5-yl)methyl)piperidin-1-yl)but-2-en-1-one]"
12,100 to 1000 nM,"CC1=CC(C)=[N+]2C1=Cc1ccc(CCC(=O)NCCN3CCN(C/C=C/C(=O)N4CC(n5ccc6ncnc(Oc7ccc(Oc8ccccc8)cc7)c65)C4)CC3)n1[B-]2(F)F [Compound 32, (E)-5,5-difluoro-1,3-dimethyl-7-(3-oxo-3-((2-(4-(4-oxo-4-(3-(4-(4-phenoxyphenoxy)-5H-pyrrolo[3,2-d]pyrimidin-5-yl)azetidin-1-yl)but-2-en-1-yl)piperazin-1-yl)ethyl)amino)propyl)-5H-dipyrrolo[1,2-c:2′,1′-f][1,3,2]diazaborinin-4-ium-5-uide]"
13,100 to 1000 nM,"CN(C)C/C=C/C(=O)N[C@H]1C[C@H](n2ccc3ncnc(Oc4ccc(Oc5ccccc5)cc4)c32)C1 [Compound 33, (E)-4-(dimethylamino)-N-(trans-3-(4-(4-phenoxyphenoxy)-5H-pyrrolo[3,2-d]pyrimidin-5-yl)cyclobutyl)but-2-enamide]"
14,100 to 1000 nM,"C=CC(=O)N1CC[C@@H](n2ccc3ncnc(Oc4ccc(Oc5ccccc5)cc4)c32)C1 [Compound 34, (R)-1-(3-(4-(4-phenoxyphenoxy)-5H-pyrrolo[3,2-d]pyrimidin-5-yl)pyrrolidin-1-yl)prop-2-en-1-one]"
15,100 to 1000 nM,"C=CC(=O)N1CC(n2ccc3ncnc(Oc4ccc(NC(=O)c5ccccc5)cc4)c32)C1 [Compound 35, N-(4-((5-(1-acryloylazetidin-3-yl)-5H-pyrrolo[3,2-d]pyrimidin-4-yl)oxy)phenyl)benzamide]"
